From patent publication US20260226048A1, “MULTI-CYCLIC IRAK AND FLT3 INHIBITING COMPOUNDS AND USES THEREOF” (CHILDREN'S HOSPITAL MEDICAL CENTER, priority 2023, published 2026)
pIC50: −log10 of the molar value. Like-named read-outs stand apart in the source and are kept apart here.

What was measured:
[1] = test system: NF-κB-inducible SEAP reporter in THP-1-Blue NF-κB cells; experiment: NF-kB SEAP reporter assay in THP-1-Blue NF-κB cells; format: cell-based; details: 24 hours
Description: THP-1-Blue NF-κB cells (InvivoGen) carrying a stable integrated NF-κB-inducible secreted embryonic alkaline phosphatase (SEAP) reporter construct were plated at a concentration of 1×10^5 cells per well. The cells were stimulated with Pam3CSK4 (1 ng/mL) or hIL1B (1 ng/mL). After 10-20 minutes, the cells were then treated with vehicle (DMSO) or serial dilutions of the test compounds (10 doses tested for each test compound, with a 1:10 dilution series starting at 1 μM or 3 μM) with a final volume of 200 μL for 24 hours at 37° C. After 24 hours, the cells were centrifuged and 20 μL supernatant was incubated with 180 μL QUANTI-Blue reagent at 37° C. for 30-60 minutes. The levels of NF-κB-induced was measured in a microplate reader at 620 nm.

MOLM14 D835Y cells = experiment: MOLM14 D835Y cell viability assay (Cell Titer Glo); format: cell-based; details: cell viability, Cell Titer Glo, 48 hours, read-out: MOLM14 D835Y IC50
Method in brief: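 MOLM14 cells with FLT3 D835Y or F691L kinase-domain resistance mutations seeded at 1000 cells/well and exposed to compound for 48 h under standard incubator conditions. Viability read by CellTiter-Glo luminescence after 15 min at room temperature.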

FLT3 = biological target: T1, FLT3 (Homo sapiens, UniProt P36888); experiment: RBC HotSpot Kinase Assay, FLT3; format: biochemical; parameters: purchased Reaction Biology (RBC HotSpot); details: isolated kinase enzyme, 33P-ATP, P81 filter-binding
T1 sequence (P36888 27-993): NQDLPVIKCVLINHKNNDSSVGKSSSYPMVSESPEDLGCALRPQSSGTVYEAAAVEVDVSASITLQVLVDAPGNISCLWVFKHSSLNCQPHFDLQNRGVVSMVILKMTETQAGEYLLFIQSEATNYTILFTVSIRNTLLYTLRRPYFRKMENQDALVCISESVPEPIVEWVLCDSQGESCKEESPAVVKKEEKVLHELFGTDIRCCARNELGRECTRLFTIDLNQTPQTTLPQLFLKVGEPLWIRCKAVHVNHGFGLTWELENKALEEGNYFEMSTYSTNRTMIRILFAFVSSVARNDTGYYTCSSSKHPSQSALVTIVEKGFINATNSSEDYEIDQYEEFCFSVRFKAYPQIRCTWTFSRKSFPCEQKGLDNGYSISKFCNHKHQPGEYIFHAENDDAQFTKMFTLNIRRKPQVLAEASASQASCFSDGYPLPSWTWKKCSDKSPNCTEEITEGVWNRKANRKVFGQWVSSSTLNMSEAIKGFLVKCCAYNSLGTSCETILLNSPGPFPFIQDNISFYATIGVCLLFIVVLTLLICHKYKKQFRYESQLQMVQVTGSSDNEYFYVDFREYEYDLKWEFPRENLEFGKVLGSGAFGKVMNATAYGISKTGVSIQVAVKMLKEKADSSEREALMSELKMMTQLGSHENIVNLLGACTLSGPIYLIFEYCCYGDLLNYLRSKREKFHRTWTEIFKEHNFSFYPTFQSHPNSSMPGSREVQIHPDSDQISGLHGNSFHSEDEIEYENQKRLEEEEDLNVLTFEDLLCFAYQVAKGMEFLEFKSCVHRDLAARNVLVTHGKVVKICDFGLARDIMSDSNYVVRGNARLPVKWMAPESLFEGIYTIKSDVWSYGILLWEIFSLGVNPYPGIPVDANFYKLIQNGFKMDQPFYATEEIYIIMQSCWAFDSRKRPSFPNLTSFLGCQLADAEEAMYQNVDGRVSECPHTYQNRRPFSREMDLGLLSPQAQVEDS
Method in brief: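 Radiometric HotSpot assay of catalytic activity with isolated recombinant kinase, possibly truncated or kinase domain only. Buffer: 20 mM Hepes pH 7.5, 10 mM MgCl2, 1 mM EGTA, 0.01% Brij35, 0.02 mg/ml BSA, 0.1 mM Na3VO4, 2 mM DTT, 1% DMSO, with cofactors specific to each kinase.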

[2] = THP-1-Blue NF-κB cells stimulated with Pam3CSK4 (1 ng/mL), read-out: NF-κB Pam3SCK4 IC50
[3] = THP-1-Blue NF-κB cells stimulated with hIL1B (1 ng/mL), read-out: NF-κB IL1B IC50

| Structure (SMILES) | pIC50 [1, 2] | pIC50 [1, 3] | pIC50 (MOLM14 D835Y cells; Homo sapiens, MOLM-14, 48 h) | pIC50 (FLT3) | pIC50 (MOLM14 D835Y cells) |
| --- | --- | --- | --- | --- | --- |
| CC(O)(c1ccc2ncc(-c3ccnc(N[C@H]4CNCC[C@@H]4F)n3)n2c1)C(F)(F)F (single isomer, unassigned) [Compound 25a] | 6.71 | 6.82 | 7.44 | > 9.30 | – |
| CC(O)(c1ccc2ncc(-c3ccnc(N[C@@H]4CCCNC4)n3)n2c1)C(F)(F)F (single isomer, unassigned) [Compound 22a] | – | – | – | 9.22 | 7.44 |
| CC(O)(c1ccc2ncc(-c3ccnc(N[C@@H]4CCCNC4)n3)n2c1)C(F)(F)F (single isomer, unassigned) [Compound 23a] | 7.25 | 7.02 | – | > 9.30 | 7.80 |
| COc1cc2ncc(-c3nc(N[C@H]4CNCC[C@@H]4F)ncc3F)n2nc1C1COC1 [Compound 92a, 5-fluoro-N-((3S,4S)-4-fluoropiperidin-3-yl)-4-(7-methoxy-6-(oxetan-3-yl)imidazo[1,2-b]pyridazin-3-yl)pyrimidin-2-amine] | 7.28 | 7.22 | 8.30 | > 9.30 | – |
| CC(C)(O)c1cn2c(-c3nc(N[C@H]4CNCC[C@@H]4F)ncc3F)cnc2cn1 [Compound 100a, 2-(3-(5-fluoro-2-(((3S,4S)-4-fluoropiperidin-3-yl)amino)pyrimidin-4-yl)imidazo[1,2-a]pyrazin-6-yl)propan-2-ol] | 7.16 | 7.08 | 7.05 | 9.00 | – |
| COc1cc2ncc(-c3nc(N[C@H]4CNCC[C@@H]4F)ncc3F)n2nc1C1CC(F)(F)C1 [Compound 49a, 4-(6-(3,3-difluorocyclobutyl)-7-methoxyimidazo[1,2-b]pyridazin-3-yl)-5-fluoro-N-((3S,4S)-4-fluoropiperidin-3-yl)pyrimidin-2-amine] | 7.10 | 7.05 | 7.82 | > 9.30 | – |
| CC(C)(O)c1ccc2ncc(-c3nc(N[C@H]4CNCC[C@@H]4F)ncc3F)n2c1 [Compound 46a, 2-(3-(5-fluoro-2-(((3S,4S)-4-fluoropiperidin-3-yl)amino)pyrimidin-4-yl)imidazo[1,2-a]pyridin-6-yl)propan-2-ol] | 6.99 | 6.95 | 7.48 | > 9.15 | – |
| COc1cc2ncc(-c3nc(N[C@H]4CNC[C@@H]4F)ncc3F)n2nc1N1CCCS1(=O)=O [Compound 111a, 2-(3-(5-fluoro-2-(((3S,4S)-4-fluoropyrrolidin-3-yl)amino)pyrimidin-4-yl)-7-methoxyimidazo[1,2-b]pyridazin-6-yl)isothiazolidine 1,1-dioxide] | – | – | 7.89 | > 9.30 | – |
| CC(O)(c1ccc2ncc(-c3cncc(N[C@H]4CNCC[C@@H]4F)n3)n2c1)C(F)(F)F (single isomer, unassigned) [Compound 31a] | 6.86 | 7.00 | – | 9.00 | 6.79 |
| COc1cc2ncc(-c3nc(N[C@H]4CNCC[C@@H]4F)ncc3F)n2nc1C1CC1 [Compound 1a, 4-(6-cyclopropyl-7-methoxyimidazo[1,2-b]pyridazin-3-yl)-5-fluoro-N-((3S,4S)-4-fluoropiperidin-3-yl)pyrimidin-2-amine] | 7.77 | 7.66 | 9.00 | 9.30 | – |
| FC(F)COc1cc2ncc(-c3ccnc(N[C@H]4CNCC[C@@H]4F)n3)n2nc1C1CC1 [Compound 4a, 4-(6-cyclopropyl-7-(2,2-difluoroethoxy)imidazo[1,2-b]pyridazin-3-yl)-N-((3 S,4S)-4-fluoropiperidin-3-yl)pyrimidin-2-amine] | 6.74 | 6.78 | 8.05 | > 9.30 | – |
| CC(C)(O)c1ccc2ncc(-c3nc(N[C@@H]4CCCNC4)ncc3F)n2c1 [Compound 48a, (R)-2-(3-(5-fluoro-2-(piperidin-3-ylamino)pyrimidin-4-yl)imidazo[1,2-a]pyridin-6-yl)propan-2-ol] | 7.25 | 7.02 | 7.44 | 9.00 | – |
| COc1cc2ncc(-c3nc(N[C@H]4CNCC[C@@H]4F)ncc3F)n2nc1C(C)(C)O [Compound 45a, 2-(3-(5-fluoro-2-(((3S,4S)-4-fluoropiperidin-3-yl)amino)pyrimidin-4-yl)-7-methoxyimidazo[1,2-b]pyridazin-6-yl)propan-2-ol] | 6.69 | 6.45 | 7.82 | > 9.30 | – |
| COc1cc2ncc(-c3nc(N[C@H]4CNCC[C@@H]4F)ncc3F)n2nc1C1CC2(CCC2)C1 [Compound 60a, 5-fluoro-N-((3S,4S)-4-fluoropiperidin-3-yl)-4-(7-methoxy-6-(spiro[3.3]heptan-2-yl)imidazo[1,2-b]pyridazin-3-yl)pyrimidin-2-amine] | 6.81 | 6.70 | 7.96 | > 9.30 | – |
| COc1cc2ncc(-c3ccnc(N[C@H]4CNCC[C@@H]4F)n3)n2nc1C1CCC1 [Compound 79a, 4-(6-cyclobutyl-7-methoxyimidazo[1,2-b]pyridazin-3-yl)-N-((3S,4S)-4-fluoropiperidin-3-yl)pyrimidin-2-amine] | 6.47 | 6.57 | 7.70 | > 9.30 | – |
| COc1cc2ncc(-c3nc(N[C@@H]4CCCNC4)ncc3F)n2nc1C1CC2(CCC2)C1 [Compound 59a, (R)-5-fluoro-4-(7-methoxy-6-(spiro[3.3]heptan-2-yl)imidazo[1,2-b]pyridazin-3-yl)-N-(piperidin-3-yl)pyrimidin-2-amine] | 6.60 | 6.49 | 8.15 | > 9.30 | – |
| COc1cc2ncc(-c3nc(N[C@H]4CNCC[C@@H]4F)ncc3F)n2nc1N1CCCS1(=O)=O [Compound 112a, 2-(3-(5-fluoro-2-(((3S,4S)-4-fluoropiperidin-3-yl)amino)pyrimidin-4-yl)-7-methoxyimidazo[1,2-b]pyridazin-6-yl)isothiazolidine 1,1-dioxide] | 6.63 | 6.45 | 8.52 | > 9.30 | – |
| CC(O)(c1ccc2ncc(-c3cncc(N[C@@H]4CCCNC4)n3)n2c1)C(F)(F)F (single isomer, unassigned) [Compound 28a] | 7.02 | 6.83 | 6.69 | 8.70 | – |
| F[C@H]1CCNC[C@@H]1Nc1nccc(-c2cnc3cc(OC4CC4)c(C4CC4)nn23)n1 [Compound 12a, 4-(7-cyclopropoxy-6-cyclopropylimidazo[1,2-b]pyridazin-3-yl)-N-((3S,4S)-4-fluoropiperidin-3-yl)pyrimidin-2-amine] | 6.42 | 6.66 | 7.64 | > 9.30 | – |
